Values of other authors in paper PMC9851200, “Multiparameter phenotypic screening for endogenous TFEB and TFE3 translocation identifies novel chemical series modulating lysosome function” (Autophagy, 2022).

Experiments:
Set-up in all cases: method as in original PKIS2 published data
[1] = target: kinases (KINOMEscan panel) (Homo sapiens, UniProt Q04759); conditions: kinase PRKCQ; Published KINOMEscan; ref original PKIS2 published data; cited from earlier work
[2] = target: T1, kinases (KINOMEscan panel) (Homo sapiens, UniProt Q13546); conditions: kinase RIPK1; Published KINOMEscan; ref original PKIS2 published data; cited from earlier work
T1 sequence (Q13546 1-671): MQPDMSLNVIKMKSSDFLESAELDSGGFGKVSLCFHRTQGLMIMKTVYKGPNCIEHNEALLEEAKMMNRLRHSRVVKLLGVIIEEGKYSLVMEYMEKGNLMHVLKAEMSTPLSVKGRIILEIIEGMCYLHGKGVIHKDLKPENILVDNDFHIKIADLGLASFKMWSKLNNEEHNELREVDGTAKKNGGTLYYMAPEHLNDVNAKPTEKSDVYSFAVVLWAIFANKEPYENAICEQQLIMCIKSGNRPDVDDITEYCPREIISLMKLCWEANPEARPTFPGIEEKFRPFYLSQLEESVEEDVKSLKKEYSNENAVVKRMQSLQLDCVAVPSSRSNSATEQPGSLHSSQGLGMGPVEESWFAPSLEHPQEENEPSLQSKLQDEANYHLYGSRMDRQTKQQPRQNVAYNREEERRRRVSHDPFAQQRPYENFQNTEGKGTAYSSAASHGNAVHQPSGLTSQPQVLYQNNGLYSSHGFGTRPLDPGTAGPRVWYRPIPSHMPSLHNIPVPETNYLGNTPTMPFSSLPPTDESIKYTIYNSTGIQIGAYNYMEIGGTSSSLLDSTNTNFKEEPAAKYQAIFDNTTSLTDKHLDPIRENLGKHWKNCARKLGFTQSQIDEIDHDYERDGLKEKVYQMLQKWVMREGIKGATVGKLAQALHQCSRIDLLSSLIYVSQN

[3] = target: T2, kinases (KINOMEscan panel) (Homo sapiens, UniProt Q8TDC3); conditions: BRSK1; Published KINOMEscan; ref original PKIS2 published data; cited from earlier work
T2 sequence (Q8TDC3 1-778): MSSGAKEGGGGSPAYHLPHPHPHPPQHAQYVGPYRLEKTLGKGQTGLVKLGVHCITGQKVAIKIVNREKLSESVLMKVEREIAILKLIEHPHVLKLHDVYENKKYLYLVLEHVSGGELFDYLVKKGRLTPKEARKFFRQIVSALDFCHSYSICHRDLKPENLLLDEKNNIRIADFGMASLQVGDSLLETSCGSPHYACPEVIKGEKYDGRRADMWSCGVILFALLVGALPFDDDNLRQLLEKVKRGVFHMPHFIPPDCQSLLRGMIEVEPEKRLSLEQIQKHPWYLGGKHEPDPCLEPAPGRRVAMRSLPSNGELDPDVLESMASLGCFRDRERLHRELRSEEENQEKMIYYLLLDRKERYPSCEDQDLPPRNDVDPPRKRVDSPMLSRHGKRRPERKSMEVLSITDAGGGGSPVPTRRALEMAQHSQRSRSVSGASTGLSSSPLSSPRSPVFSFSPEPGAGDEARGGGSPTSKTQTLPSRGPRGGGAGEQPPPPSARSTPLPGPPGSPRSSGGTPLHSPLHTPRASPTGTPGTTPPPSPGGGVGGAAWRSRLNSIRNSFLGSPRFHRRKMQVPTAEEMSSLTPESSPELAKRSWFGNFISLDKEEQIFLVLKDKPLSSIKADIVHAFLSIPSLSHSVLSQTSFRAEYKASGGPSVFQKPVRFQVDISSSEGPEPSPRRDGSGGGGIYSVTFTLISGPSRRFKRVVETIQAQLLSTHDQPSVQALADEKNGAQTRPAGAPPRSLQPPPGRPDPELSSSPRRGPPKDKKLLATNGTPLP

[4] = target: T3, kinases (KINOMEscan panel) (Homo sapiens, UniProt Q96PY6); conditions: kinase NEK1; Published KINOMEscan; ref original PKIS2 published data; cited from earlier work
T3 sequence (Q96PY6 1-1258): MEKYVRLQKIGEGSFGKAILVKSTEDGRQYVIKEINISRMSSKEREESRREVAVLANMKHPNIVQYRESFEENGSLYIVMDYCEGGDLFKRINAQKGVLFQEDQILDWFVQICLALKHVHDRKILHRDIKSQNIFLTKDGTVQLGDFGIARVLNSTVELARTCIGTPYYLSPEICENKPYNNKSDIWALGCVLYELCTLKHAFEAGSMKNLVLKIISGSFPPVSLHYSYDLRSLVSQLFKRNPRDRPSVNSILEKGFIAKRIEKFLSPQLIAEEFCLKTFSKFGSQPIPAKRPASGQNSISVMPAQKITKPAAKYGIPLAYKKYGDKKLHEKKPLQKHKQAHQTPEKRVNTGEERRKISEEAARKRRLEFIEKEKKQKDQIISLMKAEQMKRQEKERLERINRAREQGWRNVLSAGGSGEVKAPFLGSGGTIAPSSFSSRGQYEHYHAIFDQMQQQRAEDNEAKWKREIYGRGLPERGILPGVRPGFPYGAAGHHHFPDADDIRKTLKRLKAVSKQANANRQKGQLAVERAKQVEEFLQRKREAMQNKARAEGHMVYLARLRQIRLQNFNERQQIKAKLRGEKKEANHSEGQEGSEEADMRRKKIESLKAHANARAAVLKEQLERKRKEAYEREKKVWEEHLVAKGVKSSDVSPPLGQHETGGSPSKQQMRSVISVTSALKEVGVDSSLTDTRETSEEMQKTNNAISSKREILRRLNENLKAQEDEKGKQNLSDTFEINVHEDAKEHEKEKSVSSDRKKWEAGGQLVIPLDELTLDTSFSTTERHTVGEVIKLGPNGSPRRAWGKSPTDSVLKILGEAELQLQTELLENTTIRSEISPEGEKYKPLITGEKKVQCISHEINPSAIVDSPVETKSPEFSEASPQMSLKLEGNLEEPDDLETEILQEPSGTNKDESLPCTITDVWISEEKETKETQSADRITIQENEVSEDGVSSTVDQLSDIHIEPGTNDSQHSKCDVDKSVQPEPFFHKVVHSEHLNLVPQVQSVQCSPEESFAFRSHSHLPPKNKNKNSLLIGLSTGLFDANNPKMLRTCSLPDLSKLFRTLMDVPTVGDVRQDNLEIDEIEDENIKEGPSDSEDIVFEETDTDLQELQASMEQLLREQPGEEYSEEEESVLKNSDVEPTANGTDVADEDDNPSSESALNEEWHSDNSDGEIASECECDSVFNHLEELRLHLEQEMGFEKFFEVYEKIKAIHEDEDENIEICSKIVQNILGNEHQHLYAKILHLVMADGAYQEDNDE

Chain of kinases (KINOMEscan panel) (Homo sapiens, UniProt Q04759) (Q04759 whole entry): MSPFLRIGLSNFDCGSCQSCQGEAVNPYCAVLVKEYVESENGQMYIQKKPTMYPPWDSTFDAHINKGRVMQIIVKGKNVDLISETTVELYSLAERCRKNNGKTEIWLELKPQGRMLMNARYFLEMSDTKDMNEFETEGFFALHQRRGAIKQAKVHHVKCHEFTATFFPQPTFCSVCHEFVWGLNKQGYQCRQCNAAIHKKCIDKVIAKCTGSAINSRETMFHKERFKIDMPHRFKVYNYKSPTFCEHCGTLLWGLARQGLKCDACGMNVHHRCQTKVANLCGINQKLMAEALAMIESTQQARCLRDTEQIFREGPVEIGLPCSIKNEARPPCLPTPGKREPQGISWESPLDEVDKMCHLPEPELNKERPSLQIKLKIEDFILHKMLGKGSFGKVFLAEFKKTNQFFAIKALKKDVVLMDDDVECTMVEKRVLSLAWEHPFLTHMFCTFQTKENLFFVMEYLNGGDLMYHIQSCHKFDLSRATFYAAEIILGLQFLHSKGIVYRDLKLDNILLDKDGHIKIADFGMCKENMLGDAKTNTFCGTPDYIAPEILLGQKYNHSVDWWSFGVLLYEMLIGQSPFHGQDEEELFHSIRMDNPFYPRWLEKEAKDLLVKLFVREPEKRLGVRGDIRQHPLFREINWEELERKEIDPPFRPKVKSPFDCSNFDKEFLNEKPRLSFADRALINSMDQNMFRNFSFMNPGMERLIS

## Cc1cccc(-c2nc(Nc3ccncc3)c3ccccc3n2)n1 [NK215]
[1]
  KINOMEscan PRKCQ: 0
[2]
  KINOMEscan RIPK1: 4
[3]
  KINOMEscan BRSK1: 0
[4]
  KINOMEscan NEK1: 0
